Laboratory results: PubChem BioAssay (NCI)
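Five compound concentrations were applied to cells in 96-well plates for 48 hours; endpoints were derived by simple linear interpolation of the resulting dose-response curve. Definition used: TGI = concentration required for complete inhibition of growth.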

How the values were obtained:
Experiment in all cases: DTP human tumour cell line panel, 48 h
[1] = test system: 786-0 renal
[2] = test system: NCI-H460 lung
[3] = test system: OVCAR-8 ovarian
[4] = test system: NCI-H23 lung
[5] = test system: SK-OV-3 ovarian
[6] = test system: SF-295 CNS
[7] = test system: SK-MEL-5 melanoma
[8] = test system: UO-31 renal
[9] = test system: MOLT-4 leukemia
[10] = test system: OVCAR-3 ovarian
[11] = test system: SF-268 CNS
[12] = test system: SNB-75 CNS
[13] = test system: CCRF-CEM leukemia
[14] = test system: COLO 205 colon
[15] = test system: SR leukemia

SMILES	TGI [1] [µM]	TGI [2] [µM]	TGI [3] [µM]	TGI [4] [µM]	TGI [5] [µM]	TGI [6] [µM]	TGI [7] [µM]	TGI [8] [µM]	TGI [9] [µM]	TGI [10] [µM]	TGI [11] [µM]	TGI [12] [µM]	TGI [13] [µM]	TGI [14] [µM]	TGI [15] [µM]
O=c1[nH]nc2c3n[nH]c(=O)n3c3ccccc3n12	> 100	> 100	> 100	> 100	> 100	> 100	> 100	> 100	> 100	> 100	> 100	> 100	> 100	> 100	
COc1ccccc1OCc1nnc(SCC(=O)O)n1-c1ccccc1	> 100	> 100	> 100	> 100	> 100	> 100	> 100	> 100	> 100	> 100	> 100	> 100	> 100	> 100	> 100
COc1cc2c(cc1OC)[C@]1(O)C(=O)c3ccc4c(c3O[C@@H]1CO2)C[C@H](C(C)(C)O)O4	> 100	> 100	> 100	> 100	> 100			> 100	> 100	> 100		> 100	> 100	> 100	
CCCN(CCC)C(=O)Cc1c2n(c3ccccc13)CCCc1ccccc1-2	30.6	29.3	29.9	25.7	29	22.4	27.4	27.2	32.9	29.5	28.5	24.4	37.2	29.1	24.8
O=C1c2ccccc2N2OC3C4CCC(C4)C3C12c1ccccc1 (stereo unspecified)	> 100		> 100	> 100	> 100	> 100	> 100	> 100	> 100		> 100	> 100	> 100	> 100	> 100
O=C(Cc1ccccc1)NN1C(=O)C(Cl)C1c1cc(Br)cc(Br)c1O (stereo unspecified)	36.7	22.4	> 100	33.2	62.6	98.7	29.6	20.6	13.2	10.7	43.3	56.1	24.1	44.8	13.1
CC(=O)C1CC2(c3ccccc3)C(=O)c3ccccc3N2O1 (stereo unspecified)	> 100		> 100	> 100	> 100	> 100	> 100	> 100	> 100		> 100	> 100	> 100	> 100	> 100
CC1(Br)C(=O)NC(=O)N([C@H]2C[C@H](O)[C@@H](CO)O2)C1N=[N+]=[N-] (stereo partly specified)	> 100	> 100	> 100	> 100	> 100	> 100	> 100	> 100	> 100	> 100	> 100	> 100	> 100	> 100	> 100
CSc1ccc2c(cc1=O)C(NC(=O)c1cc(O)c(OC(=O)O)c(O)c1)CCc1cc(O)c(O)c(O)c1-2 (stereo unspecified)	> 90	49.1	> 90	42.5	> 90	36.5	29.1	> 90	35.6	40	43	> 90	> 90	> 90	
CCN(CC)CCNC(=O)c1ccccc1Nc1c(Cl)cccc1Cl	19	16	31.5	33.3	30.4		24.2	22.2	31.2		34.7	23.8	35.2	26.7	34.2
COc1cc([C@@H]2c3cc4c(cc3[C@@H](NC(=O)c3ccc(C(C)=O)cc3)C3COC(=O)[C@@H]32)OCO4)cc(OC)c1O (stereo partly specified)	1.81	1.53	13.7	1.41	9.46	> 100	10.3	17.6	29.9	7.61	> 100	4.99	> 100	19.5	
CN1C(=O)c2cccc3c([N+](=O)[O-])ccc(c23)C1=O	21	11.7	18.9	24.7	27.9	28.1	32.6	26.7	28.2	11.4	23.5	25.1	39.5	19.8	14
CCC(=O)NCC1(c2c[nH]c3ccccc23)SCCS1	> 100	> 100	> 100	> 100	> 100	> 100	> 100		> 100	> 100	> 100	> 100	> 100	> 100	> 100
